Assay results taken from patent US20060079573A1, “Methods and compositions for preventing vasospasm” (priority 2004, published 2006).

Tests used:
[1] = test system: canine brachial arteries; assay: Histologic evaluation (H and E) of vessels for morphologic injury; format: cell-based; conditions: 48 h after 1 mM WT treatment and incubation
Procedure: Prolonged storage in cell culture environments has the potential to cause cellular injury, which might impair smooth muscle function. To confirm that the lack of the observed contraction in WT-treated vessels was not a function of cellular damage, a subset of vessels was tested for histological signs of injury and apoptosis after treatment with WT and incubation for 48 h. For histology, formalin-fixed vessels were embedded in paraffin blocks, cut into sections for slide preparation, and stained with hematoxylin and eosin (H and E) prior to examination for signs of morphologic damage.

[2] = test system: canine brachial arteries; assay: Contractile function of artery segments in organ chambers after WT soak; format: cell-based; conditions: for force of contraction in response to 5HT: 1 μM 5-HT; for force of contraction in response to NE: 1 μM NE; for force of contraction in response to U46: 3 μM U46619; for force of contraction in response to KCl: 60 mM KCl
Description: Canine brachial arteries, equivalents of radial arteries in humans, were used in this study since they were more readily available and we could obtain longer segments than human radial arteries. Based on previous publications, it has been determined that the contractile and relaxation properties of these canine vessels are similar to the properties of human radial arteries in organ chamber studies [Corvera et al. (2003) Pretreatment with phenoxybenzamine attenuates the radial artery's vasoconstrictor response to α-adrenergic stimuli, J. Thorac. Cardiovasc. Surg., 126:1549-54; Velez et al., 2001]. The arteries were harvested as a pedicle graft and stored in 4° C. KH buffer (in mM/1: glucose 11; magnesium sulfate, 1.2; potassium phosphate 1.2; KCl, 4.7; sodium chloride 118; calcium chloride, 2.5) at pH 7.4 until ready for use.
The vessels were carefully skeletonized, cut into 4-5 mm segments, and soaked in a 1 mM solution of WT in KH buffer and 10% DMSO (used to increase solubility of WT), pH 7.4 at 37° C. for 60 min. Control vessels were soaked in KH buffer with 10% DMSO only. The vessels were then rinsed well with KH to remove all unbound drug. For testing of contractile responses, the arterial segments were mounted on steel hooks in glass organ chambers (Radnoti Glass, Monrovia, Calif.) in KH buffer at pH 7.4 and 37° C., and continuously bubbled with a gas mixture of 95% O2 and 5% CO2. One steel hook was held stationary while the other was attached to a force transducer. Force generated by the vessels in response to various agonists was recorded using an analog-to-digital converter and SPECTRUM Cardiovascular Acquisition and Analysis software (Wake Forest University, Winston-Salem, N.C.). The vessel segments were allowed to stabilize at a baseline tension of 3 g for 60 min prior to testing the effect of various vasoconstrictor agents. During this time, the buffer was changed every 20 min. The total time from the end of WT treatment until contractile responses were tested was approximately 2 h. The contractile responses to 1 μM NE (α1 receptor-dependent, calcium-dependent), 1 μM 5-HT (serotonin receptor-dependent, calcium-independent), 3 μM U46 (thromboxane A2 receptor-dependent, calcium-independent), and 60 mM KCl (receptor-independent depolarizing agent) were then quantified. […] The order in which the constricting agents were administered was varied randomly in order to avoid the effects of one drug on another. […] The vessels were thoroughly washed and allowed to stabilize for 20 min between vasoconstrictor agents. The resting tension was adjusted to 3 g during each stabilization period.
To test the duration of MLCK inhibition by the 60 min pre-treatment with 1 mM WT, a subset of vessels were harvested and treated with WT as above, then incubated in drug-free sterile culture medium [Dulbecco's modified eagle medium (Sigma, St Louis Mo.), with 10% newborn calf serum (Gibco, Inc.) and 1% penicillin-streptomycin] under sterile conditions for 48 h in an incubator aerated with 95% O2 and 5% CO2. The culture medium was changed every 12 h during this time. At the end of the 48 h period, the vessels were removed, rinsed with KH buffer, and contractile responses were tested as described above.

[3] = test system: canine brachial arteries; assay: Endothelial-independent smooth muscle relaxation to SNP after U46 pre-constriction; format: cell-based; conditions: 48 h after 1 mM WT; lower SNP concentrations (≦0.5 μM); pre-constricted with 3 μM U46; controls 87.49±2.91%
Procedure: Cardiovasc. Surg., 126:179-85; van Son et al. (1992) Detrimental sequelae on the wall of the internal mammary artery caused by hydrostatic dilation with diluted papaverine solution, J. Thorac. Cardiovasc. Surg., 104:972-6]. Therefore, to test the vasorelaxation capacity of the vessels after treatment with WT, the vessels were pre-constricted with 3 μM U46, and then exposed to incrementally increasing concentrations (50 nM to […]) of SNP, a direct smooth muscle dilator.
The capacity of the vascular smooth muscle to relax independently of the endothelium was evaluated by pre-constricting vessels with U46, followed by exposure to incrementally increasing concentrations of SNP, a direct smooth muscle relaxing agent. […] Two hours after soaking, control vessels relaxed 99.04±7.30% from their pre-constricted state in response to SNP.

[4] = test system: canine brachial arteries; assay: TUNEL assay of endothelial and smooth muscle cell apoptosis in vessels; format: cell-based
Procedure: Endothelial and smooth muscle cell apoptosis was evaluated using the terminal deoxynucleotidyl transferase (TdT)-mediated dUTP nick end labeling (TUNEL) method. In preparation for the TUNEL assay, the vessels were embedded in optimal cutting temperature compound (OCT, Sakura Finetek, Torrance, Calif.). Cryosections from frozen tissue were obtained using a Hacker-Bright cryostat and thaw-mounted onto Fisher-Plus slides (Fisher Scientific). Determination of apoptosis was performed using an in situ cell death detection kit (Roche Applied Science, Indianapolis, Ind.). DNA strand breaks were labeled with fluorescein-dUTP, followed by the addition of a secondary, antifluorescein antibody conjugated with alkaline phosphatase, a converter which generates a red color from Vector Red substrate. Folio wing counterstaining with hematoxylin and dehydration in graded alcohols, the number of apoptotic cells (indicated by red-stained nuclei) per high power field (HPF) was counted under light microscopy and is expressed as a percentage of the total number of nuclei per HPF.

[5] = test system: radial artery; conditions: cited from earlier work
[6] = test system: radial and internal mammary arteries; conditions: cited from earlier work

Compound: COC[C@H]1OC(=O)c2coc3c2[C@@]1(C)C1=C(C3=O)[C@@H]2CCC(=O)[C@@]2(C)C[C@H]1OC(C)=O [WT, Wortmannin]
- microscopic evidence of injury, endothelium and elastic lamina (H and E) [1]: appeared normal
- microscopic evidence of injury, smooth muscle (H and E) [1]: minimal hypereosinophilic staining in the smooth muscle
- force of contraction in response to 5HT ([2]; 2 h after 60 min soak in 1 mM WT, control 9.64±0.67 g): 0.92 ± 0.35 g
- force of contraction in response to 5HT ([2]; 48 h incubation after 1 mM WT soak, control 12.42±0.70 g): 4.67 ± 0.39 g
- force of contraction in response to NE ([2]; 2 h after 60 min soak in 1 mM WT, control 7.22±0.37 g): 0.19 ± 0.07 g
- force of contraction in response to NE ([2]; 48 h incubation after 1 mM WT soak, control 6.95±0.47 g): 2.36 ± 0.17 g
- force of contraction in response to U46 ([2]; 2 h after 60 min soak in 1 mM WT, control 10.99±0.50 g): 1.25 ± 0.17 g
- force of contraction in response to U46 ([2]; 48 h incubation after 1 mM WT soak, control 9.29±0.74 g): 5.42 ± 0.34 g
- force of contraction in response to KCl ([2]; 2 h after 60 min soak in 1 mM WT, control 15.00±0.48 g): 1.98 ± 0.27 g
- force of contraction in response to KCl ([2]; 48 h incubation after 1 mM WT soak, control 13.32±0.60 g): 7.49 ± 0.48 g
- contractile activity regained ([2]; 48 h after treatment): about 50%
- reduction of contractile responses / vasoconstriction ([2]; at 48 h following washout): 50%
- relaxation response to SNP from pre-constricted state [3]: 76.01±2.60%
- TUNEL-positive cells in the smooth muscle ([4]; 48 h after WT treatment and incubation, control 0.35±0.16%): 4.63±1.04%
- TUNEL-positive cells in the endothelium ([4]; 48 h after WT treatment and incubation, control 4.47±2.90%, P=0.058): 16.88%±4.90
- apoptotic nuclei in smooth muscle layer versus control ([4]; FIG. 3, 400×): greater extent of apoptotic nuclei (black arrows) stained red by the TUNEL method in the smooth muscle layer of control vessels (A) as compared to WT-treated vessels
- apoptotic nuclei in endothelium versus control ([4]; FIG. 4, 400×): greater extent of apoptotic nuclei (black arrows) stained red by the TUNEL method in the endothelium of control vessels (A) as compared to WT-treated vessels

Compound: COc1ccc(Cc2nccc3cc(OC)c(OC)cc23)cc1OC [papaverine]
- effect on contraction after washout (in words) ([5]; after the drug has been washed away): virtually no effect after the drug has been washed away
- effect on endothelium (in words) [6]: causes both impairment of endothelial function and endothelial cell apoptosis

Compound: CC(COc1ccccc1)N(CCCl)Cc1ccccc1 (centres unmarked) [phenoxybenzamine]
- prevention of alpha-agonist-induced contractions (in words) ([5]; 48 h following treatment): effective in preventing alpha-agonist-induced contractions at 48 h following treatment
